Assay results from patent US6737383B1, “Herbicidal oxadiazolidines” (priority 1999, dated 2004).

Legend:
[1] = tested on: bedstraw; assay: Test B pre/postemergence bedstraw; assay type: in vivo, Galium aparine; conditions: for Plant response rating, Bedstraw: Postemergence
How it was run: (§1)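 Herbicidal effect was estimated by eye on a ten-point control scale after plants spent twelve to sixteen days in a greenhouse following soil or foliar treatment. Foliar sprays targeted plants at one to four leaves; all doses were formulated in a non-phytotoxic solvent with surfactant.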

[2] = tested on: blackgrass; assay: Test B pre/postemergence blackgrass; assay type: in vivo, Alopecurus myosuroides
How it was run: as §1

[3] = tested on: surinam grass; assay: Test B pre/postemergence surinam grass; assay type: in vivo, Brachiaria decumbens
How it was run: as §1

[4] = tested on: cocklebur; assay: Test B pre/postemergence cocklebur; assay type: in vivo, Xanthium strumarium; conditions: for Cocklebur plant response rating: scale of 0 to 10 where 0 is no effect and 10 is complete control
How it was run: as §1

[5] = tested on: corn; assay: Test B pre/postemergence corn; assay type: in vivo, Zea mays; conditions: for Corn plant response rating: scale of 0 to 10 where 0 is no effect and 10 is complete control
How it was run: as §1

[6] = tested on: giant foxtail; assay: Test B pre/postemergence giant foxtail; assay type: in vivo, Setaria faberii; conditions: for Giant foxtail plant response rating: scale of 0 to 10 where 0 is no effect and 10 is complete control
How it was run: as §1

[7] = tested on: morningglory; assay: Test B pre/postemergence morningglory; assay type: in vivo, Ipomoea hederacea; conditions: for Morningglory plant response rating: scale of 0 to 10 where 0 is no effect and 10 is complete control
How it was run: as §1

[8] = tested on: pigweed; assay: Test B pre/postemergence pigweed; assay type: in vivo, Amaranthus retroflexus; conditions: for Redroot pigweed plant response rating: scale of 0 to 10 where 0 is no effect and 10 is complete control
How it was run: as §1

[9] = tested on: rape; assay: Test B pre/postemergence rape; assay type: in vivo, Brassica napus; conditions: for Rape plant response rating: scale of 0 to 10 where 0 is no effect and 10 is complete control
How it was run: as §1

[10] = tested on: soybean; assay: Test B pre/postemergence soybean; assay type: in vivo, Glycine max; conditions: for Soybean plant response rating: scale of 0 to 10 where 0 is no effect and 10 is complete control
How it was run: as §1

[11] = tested on: sugar beet; assay: Test B pre/postemergence sugar beet; assay type: in vivo, Beta vulgaris; conditions: for Sugarbeets plant response rating: scale of 0 to 10 where 0 is no effect and 10 is complete control
How it was run: as §1

[12] = tested on: velvetleaf; assay: Test B pre/postemergence velvetleaf; assay type: in vivo, Abutilon theophrasti; conditions: for Velvetleaf plant response rating: scale of 0 to 10 where 0 is no effect and 10 is complete control
How it was run: as §1

[13] = tested on: wheat; assay: Test B pre/postemergence wheat; assay type: in vivo, Triticum aestivum; conditions: for Wheat plant response rating: scale of 0 to 10 where 0 is no effect and 10 is complete control
How it was run: as §1

[14] = tested on: wild oat; assay: Test B pre/postemergence wild oat; assay type: in vivo, Avena fatua; conditions: for Wild oats plant response rating: scale of 0 to 10 where 0 is no effect and 10 is complete control
How it was run: as §1

[15] = tested on: rice; assay: Test B flood test rice; assay type: in vivo, Oryza sativa
How it was run: (§2)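 Each value is a visual injury score relative to controls, with 10 meaning complete control and 0 no effect. Evaluation took place twelve to sixteen days after the 2-leaf-stage plants were treated and kept in the greenhouse.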

[16] = tested on: smallflower flatsedge; assay: Test B flood test smallflower flatsedge; assay type: in vivo, Cyperus difformis
How it was run: as §2

[17] = Preemergence, Rate 500 g/ha, scale of 0 to 10 where 0 is no effect and 10 is complete control
[18] = Postemergence, Rate 125 g/ha, scale 0 to 10, 0 is no effect, 10 is complete control
[19] = Preemergence, Rate 62 g/ha, scale 0 to 10 (0 no effect, 10 complete control)
[20] = Preemergence, Rate 250 g/ha, scale of 0 to 10 where 0 is no effect and 10 is complete control
[21] = Rate 62 g/ha, Postemergence, scale of 0 to 10 where 0 is no effect and 10 is complete control
[22] = Rate 250 g/ha, Postemergence, scale of 0 to 10 where 0 is no effect and 10 is complete control
[23] = Rate 500 g/ha, Postemergence, scale 0 to 10, 0 no effect, 10 complete control
[24] = Postemergence (flood test), Rate 125 g/ha, scale 0 to 10, 0 is no effect, 10 is complete control
[25] = Rate 62 g/ha, Postemergence (flood test species), scale of 0 to 10 where 0 is no effect and 10 is complete control
[26] = Rate 500 g/ha, listed under Postemergence (flood test species), scale 0 to 10, 0 no effect, 10 complete control

CC(C)N(C(=O)n1oc(=O)n(C2CCC2)c1=O)c1ccccc1 [Compound 348]
6: Blackgrass plant response rating (0 to 10 scale) ([2]; Preemergence, Rate 125 g/ha) | Plant response rating, Blackgrass [2, 22] | Sugarbeets plant response rating ([11]; Preemergence, Rate 500 g/ha) | Plant response rating, Velvetleaf [12, 23] | Plant response rating, S. Flatsedge [16, 24]
2: Plant response rating, Bedstraw ([1]; Rate 125 g/ha, scale 0 to 10, 0 is no effect, 10 is complete control) | Blackgrass plant response rating [2, 21] | Plant response rating, Cocklebur [4, 23] | Corn plant response rating (0 to 10 scale) ([5]; Preemergence, Rate 125 g/ha) | Corn plant response rating ([5]; Preemergence, Rate 250 g/ha) | Morningglory plant response rating ([7]; Rate 62 g/ha, Postemergence) | Rape plant response rating ([9]; Preemergence, Rate 250 g/ha) | Plant response rating, Soybean [10, 18] | Plant response rating, Velvetleaf [12, 18] | Velvetleaf plant response rating ([12]; Rate 62 g/ha, Postemergence) | Wheat plant response rating ([13]; Rate 62 g/ha, Postemergence) | Wild oats plant response rating ([14]; Rate 62 g/ha, Postemergence)
8: Plant response rating, Giant foxtail [6, 18] | Wild oats plant response rating ([14]; Preemergence, Rate 250 g/ha)
1: Plant response rating, B. signalgrass [3, 18] | Soybean plant response rating ([10]; Rate 62 g/ha, Postemergence)
5: B. signalgrass plant response rating [3, 20] | Plant response rating, Redroot pigweed [8, 23] | Plant response rating, Rape [9, 23]
7: Plant response rating, Bedstraw ([1]; Rate 500 g/ha, scale 0 to 10, 0 no effect, 10 complete control) | Plant response rating, Blackgrass [2, 23] | B. signalgrass plant response rating [3, 17] | Plant response rating, B. signalgrass [3, 23] | Rape plant response rating ([9]; Preemergence, Rate 500 g/ha) | Velvetleaf plant response rating ([12]; Preemergence, Rate 250 g/ha) | Velvetleaf plant response rating ([12]; Preemergence, Rate 500 g/ha) | Plant response rating, Wild oats [14, 23] | Plant response rating, S. Flatsedge [16, 26]
3: Plant response rating, Blackgrass [2, 18] | B. signalgrass plant response rating (0 to 10 scale, 0 is no effect, 10 is complete control) ([3]; Preemergence, Rate 125 g/ha) | Plant response rating, Corn [5, 23] | Giant foxtail plant response rating ([6]; Rate 62 g/ha, Postemergence) | Sugarbeets plant response rating ([11]; Preemergence, Rate 250 g/ha) | Plant response rating, Sugarbeets [11, 23] | Plant response rating, Velvetleaf [12, 19] | Velvetleaf plant response rating (0 to 10 scale) ([12]; Preemergence, Rate 125 g/ha) | Plant response rating, Wheat [13, 18] | Plant response rating, Wild oats [14, 18] | Plant response rating, Wild oats [14, 19]
0: B. signalgrass plant response rating [3, 21] | Plant response rating, Cocklebur [4, 18] | Plant response rating, Cocklebur [4, 19] | Cocklebur plant response rating (0 to 10 scale) ([4]; Preemergence, Rate 125 g/ha) | Cocklebur plant response rating ([4]; Preemergence, Rate 250 g/ha) | Cocklebur plant response rating ([4]; Preemergence, Rate 500 g/ha) | Cocklebur plant response rating ([4]; Rate 62 g/ha, Postemergence) | Plant response rating, Corn [5, 18] | Plant response rating, Corn [5, 19] | Corn plant response rating ([5]; Rate 62 g/ha, Postemergence) | Plant response rating, Morningglory [7, 19] | Morningglory plant response rating (0 to 10 scale) ([7]; Preemergence, Rate 125 g/ha) | Morningglory plant response rating ([7]; Preemergence, Rate 250 g/ha) | Morningglory plant response rating ([7]; Preemergence, Rate 500 g/ha) | Plant response rating, Redroot pigweed [8, 18] | Plant response rating, Redroot pigweed [8, 19] | Redroot pigweed plant response rating (0 to 10 scale) ([8]; Preemergence, Rate 125 g/ha) | Redroot pigweed plant response rating ([8]; Rate 62 g/ha, Postemergence) | Plant response rating, Rape [9, 18] | Plant response rating, Rape [9, 19] | Rape plant response rating (0 to 10 scale) ([9]; Preemergence, Rate 125 g/ha) | Rape plant response rating ([9]; Rate 62 g/ha, Postemergence) | Plant response rating, Soybean [10, 19] | Soybean plant response rating (0 to 10 scale) ([10]; Preemergence, Rate 125 g/ha) | Soybean plant response rating ([10]; Preemergence, Rate 250 g/ha) | Soybean plant response rating ([10]; Preemergence, Rate 500 g/ha) | Plant response rating, Sugarbeets [11, 18] | Plant response rating, Sugarbeets [11, 19] | Sugarbeets plant response rating (0 to 10 scale) ([11]; Preemergence, Rate 125 g/ha) | Sugarbeets plant response rating ([11]; Rate 62 g/ha, Postemergence) | Plant response rating, Wheat [13, 19] | Wheat plant response rating (0 to 10 scale) ([13]; Preemergence, Rate 125 g/ha) | Wheat plant response rating ([13]; Preemergence, Rate 250 g/ha) | Wheat plant response rating ([13]; Preemergence, Rate 500 g/ha) | Plant response rating, Rice [15, 24] | Rice plant response rating [15, 25] | Plant response rating, Rice [15, 26]
9: Bedstraw plant response rating [1, 17] | Blackgrass plant response rating [2, 20] | Blackgrass plant response rating [2, 17] | Corn plant response rating ([5]; Preemergence, Rate 500 g/ha) | Plant response rating, Giant foxtail [6, 19] | Plant response rating, Giant foxtail [6, 23] | Plant response rating, Morningglory [7, 18]
4: Plant response rating, Bedstraw ([1]; Rate 250 g/ha, scale of 0 to 10 where 0 is no effect and 10 is complete control) | Plant response rating, Blackgrass [2, 19] | Plant response rating, B. signalgrass [3, 22] | Plant response rating, Soybean [10, 23] | Plant response rating, Wheat [13, 23] | Wild oats plant response rating (0 to 10 scale) ([14]; Preemergence, Rate 125 g/ha) | S. Flatsedge plant response rating [16, 25]
10: Giant foxtail plant response rating (0 to 10 scale) ([6]; Preemergence, Rate 125 g/ha) | Giant foxtail plant response rating ([6]; Preemergence, Rate 250 g/ha) | Giant foxtail plant response rating ([6]; Preemergence, Rate 500 g/ha) | Plant response rating, Morningglory [7, 23] | Redroot pigweed plant response rating ([8]; Preemergence, Rate 250 g/ha) | Redroot pigweed plant response rating ([8]; Preemergence, Rate 500 g/ha) | Wild oats plant response rating ([14]; Preemergence, Rate 500 g/ha)
